{
  "source": "patent US20060134195A1",
  "about": "“Mannose-based fast dissolving tablets” (priority 2002, published 2006)",
  "key": {"[1]": {"assay": "Tablet strength graded 1-5 by hand and by dropping the tablet", "format": "physicochemical", "set-up": "key: strength grade on a 1-5 scale", "experimental": "(§1) A variety of candidate materials were used to make compressed tablets, and the tablet properties, such as strength and disintegration time, were examined. Particles of each material were compressed under different pressure by a Carver press. The hardness of the tablet was tested by hand for initial qualitative measurement and also by dropping the tablet from a certain height onto the laboratory bench top or to the floor. The tablet strength was graded by assigning a number ranging from 1-5. […] Each tablet was placed into 5 mL water and observed for 30 seconds to see if it disintegrated and dissolved in that time period."}, "[2]": {"assay": "Tablet placed into 5 mL water and observed for 30 seconds for disintegration and dissolution", "format": "physicochemical", "experimental": "as §1"}, "[3]": {"conditions": "compression pressure 35.1 MPa, 5 mL water, 30 seconds"}, "[4]": {"conditions": "compression pressure 105 MPa, 5 mL water, 30 seconds"}, "[5]": {"conditions": "compression pressure 70.2 MPa, 5 mL water, 30 seconds"}, "[6]": {"conditions": "summary of the materials survey, pressure not stated"}},
  "note": "Several values for one entry are separate records, joined by “and”; a condition that tells them apart may be missing. Equal entries are not always repeated. Where two headings read alike, the source gives them in different places.",
  "data": [
    {"compound": "CC(=O)Oc1ccccc1C(=O)O", "note": "[Aspirin, reference compound]", "values": [
      {"measurement": "Tablet Strength", "setting": "[1]; compression pressure 35.1 MPa", "result": 2},
      {"measurement": "Tablet Strength", "setting": "[1]; compression pressure 70.2 MPa", "result": 3},
      {"measurement": "Tablet Strength", "setting": "[1]; compression pressure 105 MPa", "result": 4}
    ]},
    {"compound": "OC[C@H]1O[C@@H]2O[C@H]3[C@H](O)[C@@H](O)[C@@H](O[C@H]4[C@H](O)[C@@H](O)[C@@H](O[C@H]5[C@H](O)[C@@H](O)[C@@H](O[C@H]6[C@H](O)[C@@H](O)[C@@H](O[C@H]7[C@H](O)[C@@H](O)[C@@H](O[C@H]8[C@H](O)[C@@H](O)[C@@H](O[C@H]1[C@H](O)[C@H]2O)O[C@@H]8CO)O[C@@H]7CO)O[C@@H]6CO)O[C@@H]5CO)O[C@@H]4CO)O[C@@H]3CO", "note": "[Beta-Cyclodextrin]", "values": [
      {"measurement": "Tablet Strength", "setting": "[1]; compression pressure 35.1 MPa", "result": 4},
      {"measurement": "Tablet Strength", "setting": "[1]; compression pressure 105 MPa", "result": 4},
      {"measurement": "Disintegration Characteristics", "setting": "[2]; [3]", "result": "No disintegration."},
      {"measurement": "Disintegration Characteristics", "setting": "[2]; [4]", "result": "No disintegration."}
    ]},
    {"compound": "Cn1c(=O)c2c(ncn2C)n(C)c1=O", "note": "[Caffeine, reference compound]", "values": [
      {"measurement": "Tablet Strength", "setting": "[1]; compression pressure 35.1 MPa", "result": 3},
      {"measurement": "Tablet Strength", "setting": "[1]; compression pressure 70.2 MPa", "result": 4},
      {"measurement": "Disintegration Characteristics", "setting": "[2]; [5]", "result": "Breaking into particles after 20 sec."}
    ]},
    {"compound": "CC(=O)[O-].CC(=O)[O-].[Ca+2]", "note": "[Calcium Acetate]", "values": [
      {"measurement": "Tablet Strength", "setting": "[1]", "result": 4},
      {"measurement": "Disintegration Characteristics", "setting": "[2]", "result": "No disintegration."}
    ]},
    {"compound": "O=C([O-])[O-].[Ca+2]", "note": "[Calcium Carbonate]", "values": [
      {"measurement": "Tablet Strength", "setting": "[1]", "result": 2},
      {"measurement": "Disintegration (screening summary)", "setting": "[2]", "result": "fast disintegration"}
    ]},
    {"compound": "[Ca+2].[Cl-].[Cl-]", "note": "[Calcium Chloride]", "values": [
      {"measurement": "Tablet Strength", "setting": "[1]", "result": 4}
    ]},
    {"compound": "O=P([O-])(O)O.O=P([O-])(O)O.[Ca+2]", "note": "[Calcium Phosphate, Monobasic]", "values": [
      {"measurement": "Tablet Strength", "setting": "[1]; compression pressure 105 MPa", "result": 3}
    ]},
    {"compound": "O=P([O-])([O-])O.[Ca+2]", "note": "[DITAB, Calcium Phosphate, Dibasic]", "values": [
      {"measurement": "Tablet Strength", "setting": "[1]; compression pressure 70.2 MPa", "result": 4},
      {"measurement": "Disintegration (screening summary)", "setting": "[2]; [6]", "result": "fast disintegration"}
    ]},
    {"compound": "N[C@@H](CCC(=O)O)C(=O)O", "note": "[Glutamic acid]", "values": [
      {"measurement": "Tablet Strength", "setting": "[1]; compression pressure 105 MPa", "result": 3},
      {"measurement": "Disintegration (screening summary)", "setting": "[2]; [6]", "result": "fast disintegration"}
    ]},
    {"compound": "NCC(=O)O", "note": "[Glycine]", "values": [
      {"measurement": "Tablet Strength", "setting": "[1]; compression pressure 105 MPa", "result": 2},
      {"measurement": "Disintegration (screening summary)", "setting": "[2]; [6]", "result": "fast disintegration"}
    ]},
    {"compound": "CC(C)Cc1ccc(C(C)C(=O)O)cc1", "note": "(stereo not shown) [Ibuprofen, reference compound]", "values": [
      {"measurement": "Tablet Strength", "setting": "[1]; compression pressure 70.2 MPa", "result": 3}
    ]},
    {"compound": "O.OC[C@H]1O[C@@H](O[C@H]2[C@H](O)[C@@H](O)C(O)O[C@@H]2CO)[C@H](O)[C@@H](O)[C@H]1O", "note": "(stereo partly shown) [Lactose monohydrate]", "values": [
      {"measurement": "Tablet Strength", "setting": "[1]; compression pressure 70.2 MPa", "result": 3}
    ]},
    {"compound": "OC[C@H]1O[C@H](O[C@H]2[C@H](O)[C@@H](O)[C@H](O)O[C@@H]2CO)[C@H](O)[C@@H](O)[C@@H]1O", "note": "[Maltose]", "values": [
      {"measurement": "Tablet Strength", "setting": "[1]; compression pressure 70.2 MPa", "result": 3},
      {"measurement": "Disintegration Characteristics", "setting": "[2]; [5]", "result": "Total disintegration of the entire tablet."},
      {"measurement": "Disintegration (screening summary)", "setting": "[2]; [6]", "result": "fast disintegration"}
    ]},
    {"compound": "OC[C@@H](O)[C@@H](O)[C@H](O)[C@H](O)CO", "note": "[Mannitol]", "values": [
      {"measurement": "Tablet Strength", "setting": "[1]; compression pressure 70.2 MPa", "result": 2}
    ]},
    {"compound": "O=C(O)c1ccccc1O", "note": "[Salicylic Acid]", "values": [
      {"measurement": "Tablet Strength", "setting": "[1]; compression pressure 35.1 MPa", "result": 1},
      {"measurement": "Tablet Strength", "setting": "[1]; compression pressure 70.2 MPa", "result": 2},
      {"measurement": "Tablet Strength", "setting": "[1]; compression pressure 105 MPa", "result": 2},
      {"measurement": "Disintegration Characteristics", "setting": "[2]; [5]", "result": "No disintegration."},
      {"measurement": "Disintegration Characteristics", "setting": "[2]; [4]", "result": "No disintegration."}
    ]},
    {"compound": "O=C([O-])[O-].[Na+].[Na+]", "note": "[Sodium Carbonate]", "values": [
      {"measurement": "Tablet Strength", "setting": "[1]", "result": "4 and 3"},
      {"measurement": "Disintegration Characteristics", "setting": "[2]", "result": "No disintegration."}
    ]},
    {"compound": "[Cl-].[Na+]", "note": "[Sodium Chloride]", "values": [
      {"measurement": "Tablet Strength", "setting": "[1]; compression pressure 70.2 MPa", "result": 2},
      {"measurement": "Tablet Strength", "setting": "[1]; compression pressure 105 MPa", "result": 2},
      {"measurement": "Disintegration Characteristics", "setting": "[2]; [5]", "result": "No disintegration."},
      {"measurement": "Disintegration Characteristics", "setting": "[2]; [4]", "result": "No disintegration."}
    ]},
    {"compound": "O=C1NS(=O)(=O)c2ccccc21.[Na]", "note": "[Sodium Saccharin]", "values": [
      {"measurement": "Tablet Strength", "setting": "[1]; compression pressure 35.1 MPa", "result": 1},
      {"measurement": "Tablet Strength", "setting": "[1]; compression pressure 70.2 MPa", "result": 2},
      {"measurement": "Tablet Strength", "setting": "[1]; compression pressure 105 MPa", "result": 2},
      {"measurement": "Disintegration Characteristics", "setting": "[2]; [3]", "result": "Instant disintegration"},
      {"measurement": "Disintegration Characteristics", "setting": "[2]; [5]", "result": "Instant disintegration"},
      {"measurement": "Disintegration Characteristics", "setting": "[2]; [4]", "result": "Instant disintegration"},
      {"measurement": "Disintegration (screening summary)", "setting": "[2]; [6]", "result": "fast disintegration"}
    ]},
    {"compound": "OC[C@H]1O[C@@](CO)(O[C@H]2O[C@H](CO)[C@@H](O)[C@H](O)[C@H]2O)[C@@H](O)[C@@H]1O", "note": "[Sucrose]", "values": [
      {"measurement": "Tablet Strength", "setting": "[1]; compression pressure 70.2 MPa", "result": 2},
      {"measurement": "Tablet Strength", "setting": "[1]; compression pressure 91.3 MPa", "result": 2},
      {"measurement": "Disintegration Characteristics", "setting": "[2]; compression pressure 91.3 MPa, 5 mL water, 30 seconds", "result": "No improvement."}
    ]},
    {"compound": "Cn1c(=O)c2[nH]cnc2n(C)c1=O", "note": "[Theophyline, reference compound]", "values": [
      {"measurement": "Disintegration Characteristics", "setting": "[2]; [3]", "result": "No disintegration."},
      {"measurement": "Disintegration Characteristics", "setting": "[2]; [5]", "result": "No disintegration."},
      {"measurement": "Disintegration Characteristics", "setting": "[2]; [4]", "result": "No disintegration."}
    ]},
    {"compound": "CC(=O)[O-].CC(=O)[O-].[Zn+2]", "note": "[Zinc Acetate]", "values": [
      {"measurement": "Tablet Strength", "setting": "[1]", "result": 3},
      {"measurement": "Disintegration Characteristics", "setting": "[2]", "result": "No disintegration."}
    ]},
    {"compound": "Calcium Gluconate", "values": [
      {"measurement": "Tablet Strength", "setting": "[1]; compression pressure 35.1 MPa", "result": 4}
    ]}
  ]
}
